We go through 11 molecules from patent US9044463B2, “FSH receptor antagonists” (Merck Sharp & Dohme B.V., priority 2011, dated 2015).

In the assay the target is T1, human FSH receptor (Homo sapiens, UniProt P23945).
T1 construct: expressed in transfected cells; host or cells: CHO (Chinese Hamster Ovary) cells, stably transfected; cotransfected with a CRE-luciferase reporter
T1 sequence (P23945 18-695): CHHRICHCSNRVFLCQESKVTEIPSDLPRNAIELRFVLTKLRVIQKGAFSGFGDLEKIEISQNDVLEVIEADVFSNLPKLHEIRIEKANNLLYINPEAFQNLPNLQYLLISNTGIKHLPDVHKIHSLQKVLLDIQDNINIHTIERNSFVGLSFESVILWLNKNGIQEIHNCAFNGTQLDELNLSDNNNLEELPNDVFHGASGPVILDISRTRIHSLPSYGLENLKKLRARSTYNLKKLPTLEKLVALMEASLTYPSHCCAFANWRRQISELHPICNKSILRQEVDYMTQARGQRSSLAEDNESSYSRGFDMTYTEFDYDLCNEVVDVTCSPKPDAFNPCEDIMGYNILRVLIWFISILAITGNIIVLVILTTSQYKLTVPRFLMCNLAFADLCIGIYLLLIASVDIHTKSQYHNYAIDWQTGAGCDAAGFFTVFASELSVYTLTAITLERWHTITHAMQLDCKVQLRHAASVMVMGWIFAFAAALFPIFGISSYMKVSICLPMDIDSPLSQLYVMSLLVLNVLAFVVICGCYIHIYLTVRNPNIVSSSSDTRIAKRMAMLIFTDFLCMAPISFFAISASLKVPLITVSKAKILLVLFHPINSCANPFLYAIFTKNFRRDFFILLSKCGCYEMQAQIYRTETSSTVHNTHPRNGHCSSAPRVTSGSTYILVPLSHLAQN
The assay can be described thus: Antagonistic activity at the human FSH receptor expressed in CHO cells (CRE-luciferase reporter). The class given is cell-based. The settings on record: CHO cells stably transfected with human FSH receptor and CRE-luciferase; with 49 μM recFSH; 4 hours incubation; read-out: IC50 (inhibition of recFSH-induced luciferase stimulation). How it is done:
Antagonistic Activity of Compounds at the Human FSH Receptor Expressed in CHO Cells
Antagonistic activity of the compounds at the human FSH receptor was determined in Chinese Hamster Ovary (CHO) cells stably transfected with the human FSH receptor and cotransfected to with a cAMP responsive element (CRE)/promoter directing the expression of a firefly luciferase reporter gene. Binding of the compounds to the Gs protein-coupled FSH receptor will result in an increase of cAMP, which in turn will induce an increased transactivation of the luciferase reporter. The cells (7,500 cells/well of a 384 well plate) were incubated in Dulbecco′ minimal essential F12 modified medium (Invitrogen), supplemented with 1 μg/ml bovine insulin, 5 μg/ml human apo-transferrin, 100 U/ml penicillin G and 100 μg/ml streptomycin with the test compounds (concentration between 0.316 nM and 10.0 μM) in duplicate together with […] recFSH (which, at this concentration in the absence of test compound, induces 80% of the maximal luciferase stimulation) in a humidified atmosphere (95%) at 5-7% CO2 and 37° C. The final concentration of DMSO was 1%. After 4 hours of incubation, plates were allowed to adjust to room temperature for 1 hour. Then, SteadyLite (PerkinElmer) solution was added to the wells and cells were allowed to lyse for at least 1 hour at room temperature. Subsequently, luciferase activity was measured in a luminescence counter. The signal is expressed as counts per second (cps). The IC50 (concentration of test compound causing half-maximal (50%) inhibition of the maximally attainable inhibition of the luciferase stimulation by the compound) and efficacy of the compounds were determined using the software program MathIQ (version 2.3, ID Business Solutions Limited).
A general note: Reporter assays use an easily measured gene product as a stand-in for the process of interest.

SMILES strings stand for the structures. Bounds are passed on as bounds.

In general, IC50 refers to the concentration needed to halve the response being measured. On to `COc1cc2c(c(OC)c1OC)CCc1cc(-c3ccccc3)c(C(=O)N[C@@H](CO)Cc3c[nH]c4ccccc34)cc1-2` [Example 1, (R)—N-(1-hydroxy-3-(1H-indol-3-yl)propan-2-yl)-6,7,8-trimethoxy-2-phenyl-9,10-dihydrophenanthrene-3-carboxamide], for which the 50% inhibitory concentration (IC50) is under 100 nM.
The same measure for `COc1cc2c(c(OC)c1OC)CCc1cc(-c3ccccc3F)c(C(=O)N[C@@H](CO)Cc3c[nH]c4ccccc34)cc1-2` [Example 2, 2-(2-fluorophenyl)-N—((R)-1-hydroxy-3-(1H-indol-3-yl)propan-2-yl)-6,7,8-trimethoxy-9,10-dihydrophenanthrene-3-carboxamide]: under 100 nM; for `COc1cc2c(c(OC)c1OC)CCc1cc(-c3cccc(F)c3F)c(C(=O)N[C@@H](CO)Cc3c[nH]c4ccccc34)cc1-2` [Example 3, 2-(2,3-difluorophenyl)-N—((R)-1-hydroxy-3-(1H-indol-3-yl)propan-2-yl)-6,7,8-trimethoxy-9,10-dihydrophenanthrene-3-carboxamide]: under 100 nM.
Take `COc1cc2c(c(OC)c1OC)CCc1cc(-c3cccs3)c(C(=O)N[C@@H](CO)Cc3c[nH]c4ccccc34)cc1-2` [Example 4, (R)—N-(1-hydroxy-3-(1H-indol-3-yl)propan-2-yl)-6,7,8-trimethoxy-2-(thiophen-2-v)-9,10-dihydrophenanthrene-3-carboxamide]: the IC50 was under 100 nM.
In the case of `COc1cc2c(c(OC)c1OC)CCc1cc(-c3sccc3C)c(C(=O)N[C@@H](CO)Cc3c[nH]c4ccccc34)cc1-2` [Example 5, N—((R)-1-hydroxy-3-(1H-indol-3-yl)propan-2-yl)-6,7,8-trimethoxy-2-(3-methylthiophen-2-yl)-9,10-dihydrophenanthrene-3-carboxamide], the IC50 is under 100 nM.
With `COc1cc2c(c(OC)c1OC)CCc1cc(-c3cccnc3OC)c(C(=O)N[C@@H](CO)Cc3c[nH]c4ccccc34)cc1-2` [Example 6, N—((R)-1-hydroxy-3-(1H-indol-3-yl)propan-2-yl)-6,7,8-trimethoxy-2-(2-methoxypyrdin-3-v)-9,10-dihydrophenanthrene-3-carboxamide], the IC50 is under 100 nM.
For the molecule `COc1cc2c(c(OC)c1OC)CCc1cc(OC(C)C)c(C(=O)N[C@@H](CO)Cc3c[nH]c4ccccc34)cc1-2` [Example 7, (R)—N-(1-hydroxy-3-(1H-indol-3-yl)propan-2-yl)-2-isopropoxy-6,7,8-trimethoxy-9,10-dihydrophenanthrene-3-carboxamide], the IC50 is under 100 nM.
Regarding `COc1cc2c(cc1OC)-c1cc(C(=O)N[C@@H](CO)Cc3c[nH]c4ccccc34)c(OCC3CC3)cc1CC2` [Example 8, (R)-2-(cyclopropylmethoxy)-N-(1-hydroxy-3-(1H-indol-3-yl)propan-2-yl)-6,7-dimethoxy-9,10-dihydrophenanthrene-3-carboxamide], the IC50 is under 100 nM.
The same measure for `COc1cc2c(cc1OC)-c1cc(C(=O)N[C@@H](CO)Cc3c[nH]c4ccccc34)c(OC3CCCC3)cc1CC2` [Example 9, (R)-2-(cyclopentyloxy)-N-(1-hydroxy-3-(1H-indol-3-yl)propan-2-yl)-6,7-dimethoxy-9,10-dihydrophenanthrene-3-carboxamide]: under 100 nM.
For `CCCC(C)Oc1cc2c(cc1C(=O)N[C@@H](CO)Cc1c[nH]c3ccccc13)-c1cc(OC)c(OC)cc1CC2` (stereo partly drawn) [Example 10, N—((R)-1-hydroxy-3-(1H-indol-3-yl)propan-2-yl)-6,7-dimethoxy-2-(pentan-2-yloxy)-9,10-dihydrophenanthrene-3-carboxamide], the IC50 was under 100 nM.
Turning to `COc1cc2c(cc1OC)-c1cc(C(=O)N[C@@H](CO)Cc3c[nH]c4ccccc34)c(OC(F)F)cc1CC2` [Example 11, (R)-2-(difluoromethoxy)-N-(1-hydroxy-3-(1H-indol-3-yl)propan-2-yl)-6,7-dimethoxy-9,10-dihydrophenanthrene-3-carboxamide], the IC50 was under 100 nM.
